Test results reported in PubChem BioAssay (NCI).
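Cultured in 96-well plates, cells were exposed to test compound for 48 hours across five concentrations. TGI: total growth inhibition.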

What was measured:
Assay in all cases: NCI tumour cell line growth inhibition, 48 h
DU-145 prostate = system: DU-145 prostate
DMS 273 small cell lung = system: DMS 273 small cell lung
P388/ADR leukemia = system: P388/ADR leukemia
M19-MEL melanoma = system: M19-MEL melanoma
KM20L2 colon = system: KM20L2 colon
MDA-N = system: MDA-N
SN12K1 renal = system: SN12K1 renal
P388 leukemia = system: P388 leukemia

Measured: TGI

Nc1ccn(C2OC(COC(=O)C34CC5CC(CC(C5)C3)C4)C(O)C2O)c(=O)n1 (stereo not drawn)
> 100 µM: all assays above
